Patent publication EP1048659A1, “RETINOID RECEPTOR AGONISTS” (Institute of Medicinal Molecular Design, Inc., priority 1997, dated 1999)
Values joined by “and” are separate entries in the source; they are usually repeats but may differ in a detail not shown here. Equal entries are not always repeated.

Tested on: Promyelocytic leukemia cell strain HL-60
Experiment: HL-60 cell differentiation induction (morphological change, NBT reduction), each compound alone and with coexisting retinoid Am80
Format: cell-based
Details: for Ratio of differentiation-induced cells with coexistence of 1×10^-9 Am80: Table 1; for Ratio of differentiation-induced cells with coexistence of 1×10^-10 Am80: Table 2; for Ratio of differentiation-induced cells with coexistence of 3×10^-9 Am80: Table 3; for cell differentiation ability of the compound per se: compound used alone; for effect on the activity of the coexisting Am80 at a high concentration: compound at 1×10^-6 M; for ratios of differentiated cells, Coexisting retinoid (concentration) Am80 (-9): compound fixed at 1×10^-6 M with Am80 (-9); for ratios of differentiated cells, Coexisting retinoid (concentration) Am80 (-9.5): compound fixed at 1×10^-6 M with Am80 (-9.5); for ratios of differentiated cells, Coexisting retinoid (concentration) Am80 (-10): compound fixed at 1×10^-6 M with Am80 (-10); for ratios of differentiated cells, Coexisting retinoid (concentration) None: compound fixed at 1×10^-6 M, alone
Description: Cell differentiation-inducing activity of each compound of the present invention used alone, and effect on cell differentiation-inducing activity of coexisting retinoid were examined. As a comparative or coexisting retinoid, Am80 ([4-[(5,6,7,8-tetrahydro-5,5,8,8-tetramethyl-2-naphthalenyl)carbamoyl]benzoic acid] was used. Promyelocytic leukemia cell strain HL-60 was used, and differentiation into granulocytic cells was determined by observing morphological change and measuring ability to reduce nitroblue tetrazolium (NBT). The ratios of differentiated cells shown in the following tables were calculated from the ability to reduce NBT. (A) Concentration-dependent differentiation-inducing ability of each compound alone and concentration-dependent effect on the differentiation-inducing ability of 1×10^-9 M Am80 were measured. […] Table 1 (B) Concentration-dependent differentiation-inducing ability of each compound alone and concentration-dependent effect on the differentiation inducing ability of 1×10^-10 M Am80 were measured. […] Table 2 (C) Concentration-dependent differentiation-inducing ability of each compound alone and concentration-dependent effect on the differentiation inducing ability of 3×10^-9 M Am80 were measured.

[1] = (A) 1×10^-9 M Am80, enhancement at a concentration which did not give the cell differentiation-inducing ability, result in words
[2] = compound concentration -7, with 1×10^-9 M Am80
[3] = compound concentration -8, with 1×10^-9 M Am80
[4] = (B) 1×10^-10 M Am80, result in words
[5] = compound concentration -6, with 1×10^-10 M Am80
[6] = compound concentration -7, with 1×10^-10 M Am80
[7] = compound concentration -8, with 1×10^-10 M Am80
[8] = compound concentration -6, with 1×10^-9 M Am80
[9] = compound concentration -6, with 3×10^-9 M Am80
[10] = compound concentration -7, with 3×10^-9 M Am80
[11] = compound concentration -8, with 3×10^-9 M Am80

## CC1(C)CCC(C)(C)c2cc(NC(=O)c3ccc(C(=O)O)cc3)ccc21 [Am80, 4-[(5,6,7,8-tetrahydro-5,5,8,8-tetramethyl-2-naphthalenyl)carbamoyl]benzoic acid, reference compound]
Test compound concentration None: 1×10^-9 M Am80 alone, control
  Ratio of differentiation-induced cells with coexistence of 1×10^-9 Am80: 49% and 37% and 48%
Test compound concentration None: 1×10^-10 M Am80 alone, control
  Ratio of differentiation-induced cells with coexistence of 1×10^-10 Am80: 4% and 11%
Test compound concentration None: 3×10^-9 M Am80 alone, control
  Ratio of differentiation-induced cells with coexistence of 3×10^-9 Am80: 44 and 51
Table 4, Compound None: Am80 alone at -9
  ratios of differentiated cells, Am80 (-9): 80
Table 4, Compound None: Am80 alone at -9.5
  ratios of differentiated cells, Am80 (-9.5): 53
Table 4, Compound None: Am80 alone at -10
  ratios of differentiated cells, Am80 (-10): 8.5

## C/C(=C\c1ccc(/C=C2\SC(=O)NC2=O)cc1)c1ccc2c(c1)C(C)(C)CCC2(C)C [TZ91]
[1]
  effect on the activity of the coexisting Am80: enhanced the activity of the coexisting Am80
[2]
  Ratio of differentiation-induced cells with coexistence of 1×10^-9 Am80: 87%
[3]
  Ratio of differentiation-induced cells with coexistence of 1×10^-9 Am80: 62%
Compound concentration -9, with 1×10^-9 M Am80
  Ratio of differentiation-induced cells with coexistence of 1×10^-9 Am80: 58%
Result in words
  cell differentiation ability of the compound per se: had cell differentiation ability

## O=C1NC(=O)/C(=C/c2cccc(C(=O)NCc3ccc(C(F)(F)F)cc3)c2)S1 [TZ105, reference compound]
(E) comparison N-benzyl derivative, concentrations not given, result in words
  effect on the activity of the coexisting retinoid Am80: failed to effect the activity of the coexisting retinoid Am80
Result in words
  cell differentiation ability of the compound per se: completely inactive

## CC(C)(C)c1cc(C(=O)Nc2ccc(/C=C3\SC(=O)NC3=O)cc2)cc(C(C)(C)C)c1 [TZ151]
[4]
  effect on the activity of the coexisting Am80: enhanced the activity of the coexisting Am80
[5]
  Ratio of differentiation-induced cells with coexistence of 1×10^-10 Am80: 83%
[6]
  Ratio of differentiation-induced cells with coexistence of 1×10^-10 Am80: 43%
[7]
  Ratio of differentiation-induced cells with coexistence of 1×10^-10 Am80: 12%
Result in words
  cell differentiation ability of the compound per se: had cell differentiation ability

## CN(C(=O)c1cc(C(C)(C)C)cc(C(C)(C)C)c1)c1ccc(/C=C2\SC(=O)NC2=O)cc1 [TZ161]
[4]
  effect on the activity of the coexisting Am80 at a high concentration: acted to suppress the activity
  effect on the activity of the coexisting Am80: enhanced the activity of the coexisting Am80
[5]
  Ratio of differentiation-induced cells with coexistence of 1×10^-10 Am80: 3.8%
[6]
  Ratio of differentiation-induced cells with coexistence of 1×10^-10 Am80: 25%
[7]
  Ratio of differentiation-induced cells with coexistence of 1×10^-10 Am80: 12%
Result in words
  cell differentiation ability of the compound per se: inactive

## CC1(C)CCC(C)(C)c2cc(C(=O)Nc3ccc(/C=C4\SC(=O)NC4=O)cc3)ccc21 [TZ181]
[1]
  effect on the activity of the coexisting Am80: enhanced the activity of the coexisting Am80
[8]
  Ratio of differentiation-induced cells with coexistence of 1×10^-9 Am80: 6%
[2]
  Ratio of differentiation-induced cells with coexistence of 1×10^-9 Am80: 58%
[3]
  Ratio of differentiation-induced cells with coexistence of 1×10^-9 Am80: 53%
Result in words
  cell differentiation ability of the compound per se: had cell differentiation ability

## CN(C(=O)c1ccc2c(c1)C(C)(C)CCC2(C)C)c1ccc(/C=C2\SC(=O)NC2=O)cc1 [TZ191]
[4]
  effect on the activity of the coexisting Am80 at a high concentration: acted to suppress the activity
  effect on the activity of the coexisting Am80: enhanced the activity of the coexisting Am80
[5]
  Ratio of differentiation-induced cells with coexistence of 1×10^-10 Am80: 28%
[6]
  Ratio of differentiation-induced cells with coexistence of 1×10^-10 Am80: 75%
[7]
  Ratio of differentiation-induced cells with coexistence of 1×10^-10 Am80: 63%
Result in words
  cell differentiation ability of the compound per se: inactive

## CN1c2ccccc2N=C(c2ccc(/C=C3\SC(=O)NC3=O)cc2)c2cc3c(cc21)C(C)(C)CCC3(C)C [TZ201]
[1]
  effect on the activity of the coexisting Am80: suppressed the activity of the coexisting Am80
[8]
  Ratio of differentiation-induced cells with coexistence of 1×10^-9 Am80: 5%
[2]
  Ratio of differentiation-induced cells with coexistence of 1×10^-9 Am80: 53%
[3]
  Ratio of differentiation-induced cells with coexistence of 1×10^-9 Am80: 64%
Result in words
  cell differentiation ability of the compound per se: inactive

## CC1(C)CCC(C)(C)c2cc(C(=O)c3ccc(/C=C4\SC(=O)NC4=O)cc3)ccc21 [TZ221]
[9]
  Ratio of differentiation-induced cells with coexistence of 3×10^-9 Am80: 82
[10]
  Ratio of differentiation-induced cells with coexistence of 3×10^-9 Am80: 67
[11]
  Ratio of differentiation-induced cells with coexistence of 3×10^-9 Am80: 54

## CC1(C)CCC(C)(C)c2cc(C(=O)c3cccc(/C=C4\SC(=O)NC4=O)c3)ccc21 [TZ223]
Table 4
  ratios of differentiated cells, Coexisting retinoid (concentration) Am80 (-9): 62
  ratios of differentiated cells, Coexisting retinoid (concentration) Am80 (-9.5): 22
  ratios of differentiated cells, Coexisting retinoid (concentration) Am80 (-10): 5
  ratios of differentiated cells, Coexisting retinoid (concentration) None: 4.4

## Cc1cc2c(cc1C(=O)c1cccc(/C=C3\SC(=O)NC3=O)c1)C(C)(C)CCC2(C)C [TZ227]
Table 4
  ratios of differentiated cells, Coexisting retinoid (concentration) Am80 (-9): 11.7
  ratios of differentiated cells, Coexisting retinoid (concentration) Am80 (-9.5): 5.5
  ratios of differentiated cells, Coexisting retinoid (concentration) Am80 (-10): 7
  ratios of differentiated cells, Coexisting retinoid (concentration) None: 5.3

## C=C(c1ccc(/C=C2\SC(=O)NC2=O)cc1)c1ccc2c(c1)C(C)(C)CCC2(C)C [TZ241]
[9]
  Ratio of differentiation-induced cells with coexistence of 3×10^-9 Am80: 92
[10]
  Ratio of differentiation-induced cells with coexistence of 3×10^-9 Am80: 84
[11]
  Ratio of differentiation-induced cells with coexistence of 3×10^-9 Am80: 76

## C=C(c1cccc(/C=C2\SC(=O)NC2=O)c1)c1ccc2c(c1)C(C)(C)CCC2(C)C [TZ243]
Table 4
  ratios of differentiated cells, Coexisting retinoid (concentration) Am80 (-9): 77
  ratios of differentiated cells, Coexisting retinoid (concentration) Am80 (-9.5): 35
  ratios of differentiated cells, Coexisting retinoid (concentration) Am80 (-10): 5
  ratios of differentiated cells, Coexisting retinoid (concentration) None: 4.2

## C=C(c1ccc(/C=C2\SC(=O)NC2=O)cc1)c1cc2c(cc1C)C(C)(C)CCC2(C)C [TZ245]
[9]
  Ratio of differentiation-induced cells with coexistence of 3×10^-9 Am80: 88
[10]
  Ratio of differentiation-induced cells with coexistence of 3×10^-9 Am80: 89
[11]
  Ratio of differentiation-induced cells with coexistence of 3×10^-9 Am80: 86

## C=C(c1cccc(/C=C2\SC(=O)NC2=O)c1)c1cc2c(cc1C)C(C)(C)CCC2(C)C [TZ247]
Table 4
  ratios of differentiated cells, Coexisting retinoid (concentration) Am80 (-9): 10
  ratios of differentiated cells, Coexisting retinoid (concentration) Am80 (-9.5): 5.8
  ratios of differentiated cells, Coexisting retinoid (concentration) Am80 (-10): 6.4
  ratios of differentiated cells, Coexisting retinoid (concentration) None: 7

## CC1(C)CCC(C)(C)c2cc(Nc3ccc(/C=C4\SC(=O)NC4=O)cc3)ccc21 [TZ321]
[9]
  Ratio of differentiation-induced cells with coexistence of 3×10^-9 Am80: 88
[10]
  Ratio of differentiation-induced cells with coexistence of 3×10^-9 Am80: 83
[11]
  Ratio of differentiation-induced cells with coexistence of 3×10^-9 Am80: 55

## CN(c1ccc(/C=C2\SC(=O)NC2=O)cc1)c1ccc2c(c1)C(C)(C)CCC2(C)C [TZ325]
[9]
  Ratio of differentiation-induced cells with coexistence of 3×10^-9 Am80: 79
[10]
  Ratio of differentiation-induced cells with coexistence of 3×10^-9 Am80: 83
[11]
  Ratio of differentiation-induced cells with coexistence of 3×10^-9 Am80: 72
